Source: PubChem BioAssay AID248 (DTP/NCI, 2004)
Several values for one entry are separate records, joined by “and”; a condition that tells them apart may be missing. Identical values can stand only once. Toxic doses and inconclusive results are not listed.

Test system: L1210 leukemia ip in BDF1 mice, survival T/C
Test: NCI In Vivo Anticancer Drug Screen. Data for tumor model L1210 Leukemia (intraperitoneal) in B6D2F1 (BDF1) mice
Details: higher = longer survival
How it was run: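 Antitumor effect is assessed in tumor-bearing animals. Survival in the compound arm is compared with a vehicle-dosed control arm and expressed as their quotient.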

N=c1ccn2c(n1)OC1C(O)C(CO)OC12 (stereo not drawn)
T/C (endpoint: mean survival time, dose: 0.79 mg/kg/injection, schedule: Q03HX024 (ip), vehicle: water): 110 % of control
T/C (endpoint: mean survival time, dose: 1.56 mg/kg/injection, schedule: Q01DX009 (ip), vehicle: water): 103 % of control
T/C (endpoint: mean survival time, dose: 3.13 mg/kg/injection, schedule: Q01DX009 (ip), vehicle: water): 110 % of control
T/C (endpoint: mean survival time, dose: 100.0 mg/kg/injection, schedule: Q04DX003 (ip), vehicle: water): 169 % of control
T/C (endpoint: mean survival time, dose: 118.0 mg/kg/injection, schedule: Q01DX009 (ip), vehicle: clinical formulation): 203 % of control
T/C (endpoint: mean survival time, dose: 118.0 mg/kg/injection, schedule: Q01DX009 (ip), vehicle: saline): 195 % of control
T/C (endpoint: mean survival time, dose: 177.0 mg/kg/injection, schedule: Q01DX009 (ip), vehicle: clinical formulation): 213 % of control
T/C (endpoint: mean survival time, dose: 177.0 mg/kg/injection, schedule: Q01DX009 (ip), vehicle: saline): 230 % of control
T/C (endpoint: mean survival time, dose: 200.0 mg/kg/injection, schedule: Q04DX003 (ip), vehicle: water): 180 % of control
T/C (endpoint: mean survival time, dose: 266.0 mg/kg/injection, schedule: Q01DX009 (ip), vehicle: clinical formulation): 250 % of control
T/C (endpoint: mean survival time, dose: 266.0 mg/kg/injection, schedule: Q01DX009 (ip), vehicle: saline): 258 % of control
T/C (endpoint: mean survival time, dose: 400.0 mg/kg/injection, schedule: Q01DX009 (ip), vehicle: clinical formulation): 254 % of control
T/C (endpoint: mean survival time, dose: 400.0 mg/kg/injection, schedule: Q01DX009 (ip), vehicle: saline): 246 % of control
T/C (endpoint: mean survival time, dose: 400.0 mg/kg/injection, schedule: Q04DX003 (ip), vehicle: water): 215 % of control
T/C (endpoint: mean survival time, dose: 600.0 mg/kg/injection, schedule: Q01DX009 (ip), vehicle: clinical formulation): 101 % of control
T/C (endpoint: mean survival time, dose: 1200.0 mg/kg/injection, schedule: Q01DX001 (ip), vehicle: saline): 158 % of control
T/C (endpoint: mean survival time, dose: 1600.0 mg/kg/injection, schedule: Q01DX001 (ip), vehicle: saline): 154 % of control and 161 % of control and 166 % of control
T/C (endpoint: mean survival time, dose: 2000.0 mg/kg/injection, schedule: Q01DX001 (ip), vehicle: saline): 161 % of control and 170 % of control and 172 % of control
T/C (endpoint: median survival time, dose: 5.0 mg/kg/injection, schedule: Q03HX008 (ip), vehicle: saline): 161 % of control
T/C (endpoint: median survival time, dose: 12.5 mg/kg/injection, schedule: Q01DX009 (ip), vehicle: saline): 157 % of control
T/C (endpoint: median survival time, dose: 25.0 mg/kg/injection, schedule: Q01DX009 (ip), vehicle: saline): 178 % of control
T/C (endpoint: median survival time, dose: 25.0 mg/kg/injection, schedule: Q03HX024 (ip), vehicle: water): 170 % of control and 250 % of control
T/C (endpoint: median survival time, dose: 50.0 mg/kg/injection, schedule: Q01DX009 (ip), vehicle: saline): 184 % of control
T/C (endpoint: median survival time, dose: 50.0 mg/kg/injection, schedule: Q01DX009 (ip), vehicle: steriod suspending solution): 170 % of control
T/C (endpoint: median survival time, dose: 50.0 mg/kg/injection, schedule: Q03HX016 (ip), vehicle: saline): 211 % of control
T/C (endpoint: median survival time, dose: 50.0 mg/kg/injection, schedule: Q03HX024 (ip), vehicle: saline): 255 % of control
T/C (endpoint: median survival time, dose: 50.0 mg/kg/injection, schedule: Q03HX024 (ip), vehicle: water): 205 % of control and 230 % of control
T/C (endpoint: median survival time, dose: 100.0 mg/kg/injection, schedule: Q01DX009 (ip), vehicle: saline): 190 % of control and 205 % of control
T/C (endpoint: median survival time, dose: 100.0 mg/kg/injection, schedule: Q01DX009 (ip), vehicle: steriod suspending solution): 185 % of control
T/C (endpoint: median survival time, dose: 100.0 mg/kg/injection, schedule: Q01DX009 (oral), vehicle: saline): 166 % of control
T/C (endpoint: median survival time, dose: 100.0 mg/kg/injection, schedule: Q03HX008 (ip), vehicle: saline): 155 % of control
T/C (endpoint: median survival time, dose: 100.0 mg/kg/injection, schedule: Q03HX016 (ip), vehicle: saline): 233 % of control
T/C (endpoint: median survival time, dose: 100.0 mg/kg/injection, schedule: Q03HX024 (ip), vehicle: saline): 322 % of control
T/C (endpoint: median survival time, dose: 100.0 mg/kg/injection, schedule: Q03HX024 (ip), vehicle: water): 250 % of control and 270 % of control
T/C (endpoint: median survival time, dose: 100.0 mg/kg/injection, schedule: Q04DX003 (oral), vehicle: water): 111 % of control
T/C (endpoint: median survival time, dose: 108.0 mg/kg/injection, schedule: Q01DX008 (ip), vehicle: water): 179 % of control
T/C (endpoint: median survival time, dose: 120.0 mg/kg/injection, schedule: Q01DX001 (ip), vehicle: water): 166 % of control
T/C (endpoint: median survival time, dose: 160.0 mg/kg/injection, schedule: Q01DX001 (ip), vehicle: water): 166 % of control
T/C (endpoint: median survival time, dose: 180.0 mg/kg/injection, schedule: Q01DX008 (ip), vehicle: water): 182 % of control
T/C (endpoint: median survival time, dose: 200.0 mg/kg/injection, schedule: Q01DX001 (ip), vehicle: saline): 122 % of control
T/C (endpoint: median survival time, dose: 200.0 mg/kg/injection, schedule: Q01DX001 (ip), vehicle: water): 105 % of control
T/C (endpoint: median survival time, dose: 200.0 mg/kg/injection, schedule: Q01DX009 (ip), vehicle: saline): 219 % of control and 222 % of control and 234 % of control
T/C (endpoint: median survival time, dose: 200.0 mg/kg/injection, schedule: Q01DX009 (ip), vehicle: steriod suspending solution): 235 % of control
T/C (endpoint: median survival time, dose: 200.0 mg/kg/injection, schedule: Q01DX009 (oral), vehicle: saline): 188 % of control
T/C (endpoint: median survival time, dose: 200.0 mg/kg/injection, schedule: Q03HX008 (ip), vehicle: saline): 177 % of control
T/C (endpoint: median survival time, dose: 200.0 mg/kg/injection, schedule: Q03HX016 (ip), vehicle: saline): 255 % of control
T/C (endpoint: median survival time, dose: 200.0 mg/kg/injection, schedule: Q03HX024 (oral), vehicle: water): 116 % of control
T/C (endpoint: median survival time, dose: 200.0 mg/kg/injection, schedule: Q04DX003 (ip), vehicle: saline): 177 % of control
T/C (endpoint: median survival time, dose: 200.0 mg/kg/injection, schedule: Q04DX003 (ip), vehicle: water): 160 % of control
T/C (endpoint: median survival time, dose: 216.0 mg/kg/injection, schedule: Q01DX009 (ip), vehicle: water): 100 % of control and 105 % of control
T/C (endpoint: median survival time, dose: 300.0 mg/kg/injection, schedule: Q01DX008 (ip), vehicle: water): 202 % of control
T/C (endpoint: median survival time, dose: 300.0 mg/kg/injection, schedule: Q01DX009 (ip), vehicle: saline): 221 % of control
T/C (endpoint: median survival time, dose: 360.0 mg/kg/injection, schedule: Q01DX009 (ip), vehicle: water): 104 % of control and 111 % of control
T/C (endpoint: median survival time, dose: 400.0 mg/kg/injection, schedule: Q01DX001 (ip), vehicle: water): 100 % of control
T/C (endpoint: median survival time, dose: 400.0 mg/kg/injection, schedule: Q01DX001 (oral), vehicle: water): 120 % of control
T/C (endpoint: median survival time, dose: 400.0 mg/kg/injection, schedule: Q01DX009 (ip), vehicle: saline): 223 % of control and 262 % of control and 311 % of control
T/C (endpoint: median survival time, dose: 400.0 mg/kg/injection, schedule: Q01DX009 (ip), vehicle: steriod suspending solution): 315 % of control
T/C (endpoint: median survival time, dose: 400.0 mg/kg/injection, schedule: Q01DX009 (oral), vehicle: saline): 205 % of control
T/C (endpoint: median survival time, dose: 400.0 mg/kg/injection, schedule: Q03HX008 (ip), vehicle: saline): 188 % of control
T/C (endpoint: median survival time, dose: 400.0 mg/kg/injection, schedule: Q03HX024 (ip), vehicle: saline): 88 % of control
T/C (endpoint: median survival time, dose: 400.0 mg/kg/injection, schedule: Q03HX024 (ip), vehicle: water): 100 % of control
T/C (endpoint: median survival time, dose: 400.0 mg/kg/injection, schedule: Q04DX003 (ip), vehicle: saline): 150 % of control
T/C (endpoint: median survival time, dose: 400.0 mg/kg/injection, schedule: Q04DX003 (ip), vehicle: water): 165 % of control
T/C (endpoint: median survival time, dose: 500.0 mg/kg/injection, schedule: Q01DX008 (ip), vehicle: water): 164 % of control
T/C (endpoint: median survival time, dose: 500.0 mg/kg/injection, schedule: Q01DX009 (ip), vehicle: saline): 211 % of control
T/C (endpoint: median survival time, dose: 600.0 mg/kg/injection, schedule: Q01DX009 (ip), vehicle: saline): 232 % of control
T/C (endpoint: median survival time, dose: 700.0 mg/kg/injection, schedule: Q01DX009 (ip), vehicle: saline): 156 % of control
T/C (endpoint: median survival time, dose: 800.0 mg/kg/injection, schedule: Q01DX001 (ip), vehicle: water): 120 % of control
T/C (endpoint: median survival time, dose: 800.0 mg/kg/injection, schedule: Q01DX009 (ip), vehicle: saline): 94 % of control
T/C (endpoint: median survival time, dose: 800.0 mg/kg/injection, schedule: Q01DX009 (oral), vehicle: saline): 122 % of control
T/C (endpoint: median survival time, dose: 800.0 mg/kg/injection, schedule: Q01DX009 (oral), vehicle: water): 94 % of control
T/C (endpoint: median survival time, dose: 800.0 mg/kg/injection, schedule: Q04DX003 (ip), vehicle: water): 200 % of control
T/C (endpoint: median survival time, dose: 800.0 mg/kg/injection, schedule: Q04DX003 (oral), vehicle: saline): 166 % of control
T/C (endpoint: median survival time, dose: 1600.0 mg/kg/injection, schedule: Q01DX001 (ip), vehicle: saline): 155 % of control
T/C (endpoint: median survival time, dose: 1600.0 mg/kg/injection, schedule: Q01DX001 (ip), vehicle: water): 155 % of control
T/C (endpoint: median survival time, dose: 1600.0 mg/kg/injection, schedule: Q04DX003 (ip), vehicle: water): 100 % of control
T/C (endpoint: median survival time, dose: 1600.0 mg/kg/injection, schedule: Q04DX003 (oral), vehicle: saline): 244 % of control
T/C (endpoint: median survival time, dose: 2000.0 mg/kg/injection, schedule: Q01DX001 (oral), vehicle: water): 150 % of control

O=C(O)c1ccnc(-c2ccc(Cl)cc2)c1
T/C (endpoint: mean survival time, dose: 100.0 mg/kg/injection, schedule: Q04DX003 (ip), vehicle: saline): 90 % of control
T/C (endpoint: mean survival time, dose: 200.0 mg/kg/injection, schedule: Q04DX003 (ip), vehicle: saline): 92 % of control

CC1=NN(c2ccccc2)C(=O)C1N=Nc1ccc(S(=O)(=O)Nc2nccs2)cc1 (stereo not drawn)
T/C (endpoint: mean survival time, dose: 100.0 mg/kg/injection, schedule: Q01DX001 (ip), vehicle: saline): 96 % of control
T/C (endpoint: mean survival time, dose: 200.0 mg/kg/injection, schedule: Q01DX001 (ip), vehicle: saline): 91 % of control
T/C (endpoint: mean survival time, dose: 400.0 mg/kg/injection, schedule: Q01DX001 (ip), vehicle: saline): 91 % of control
